Experimental data taken from the Deep4Chem optical property database.

Assay: solvent given as SMILES
Conditions: in C1CCCCC1

| SMILES | emission maximum [nm] |
| --- | --- |
| N#Cc1cc2ccc(O)cc2oc1=O | 411 |
| CCOC(=O)CCOc1ccccc1C(c1c(C)[nH]c2ccccc12)c1c(C)[nH]c2ccccc12 | 329 |
| c1ccc2c(c1)[nH]c1cccnc12 | 341 |
| COc1ccc(/C=C(\C)c2nc3ccccc3o2)cc1 | 380 |
| CCC1(CC)c2cc(C=O)ccc2-c2ccc(N(C)C)cc21 | 416 |

Same assay, conditions: in C1CCOC1

| SMILES | emission maximum [nm] |
| --- | --- |
| Cc1cc(=O)c2ccc(N)cc2o1 | 382 |
| N#Cc1cc2ccc(O)cc2oc1=O | 405 |
| OCCSc1cccc2[n+]1[B-](F)(F)n1c(c3cccc4cccc1c43)=N2 | 505 |
| F[B-]1(F)n2c(c(-c3ccccc3)c(-c3ccccc3)c2-c2ccccc2)C(c2ccccc2)=C2C(c3ccccc3)=C(c3ccccc3)C(c3ccccc3)=[N+]21 | 613 |
| c1ccc2c(c1)[nH]c1cccnc12 | 352 |

Same assay, conditions: in C1COCCO1

| emission maximum [nm] | SMILES |
| --- | --- |
| 378 | Cc1cc(=O)c2ccc(N)cc2o1 |
| 368 | COc1cccc(-n2c(-c3ccc(O)cc3)nc(C)c2C)c1 |
| 437 | Cc1cccc2nc3c(=O)[nH]c(=O)[nH]c3nc12 |

| SMILES | emission maximum [nm] |
| --- | --- |
| c1ccc2c(c1)[nH]c1cccnc12 | 367 |

Same assay, conditions: in CC#N

| SMILES | emission maximum [nm] |
| --- | --- |
| N#Cc1cc2ccc(O)cc2oc1=O | 402 |
| CCCn1c2cccc3c2[c+]2c4c1cccc4n(CCC)c1cccc(c12)n3CCC | 557 |
| CCOC(=O)CCOc1ccccc1C(c1c(C)[nH]c2ccccc12)c1c(C)[nH]c2ccccc12 | 340 |
| OCCSc1cccc2[n+]1[B-](F)(F)n1c(c3cccc4cccc1c43)=N2 | 502 |
| COc1cccc(-n2c(-c3ccc(O)cc3)nc(C)c2C)c1 | 364 |
| Cc1cccc2nc3c(=O)[nH]c(=O)[nH]c3nc12 | 449 |
| COc1ccc(-c2c3ccccc3c3n2[B-](F)(F)[N+]2=Cc4c5ccccc5c(-c5ccc(OC)cc5)n4[B-](F)(F)[N+]2=C3)cc1 | 606 |
| CCC1(CC)c2cc(C=O)ccc2-c2ccc(N(C)C)cc21 | 521 |

Second part, the compound after the results:

| emission maximum [nm] | SMILES |
| --- | --- |
| 388 | Cc1cc(=O)c2ccc(N)cc2o1 |
| 488 | COc1ccc(/C=C/C(=O)c2c(O)cc(C)oc2=O)cc1 |
| 403 | c1ccc2c(c1)cc(-c1cc(-c3nccs3)nc(-c3nccs3)c1)c1ccccc12 |

Same assay, conditions: in CC(C)O

| emission maximum [nm] | SMILES |
| --- | --- |
| 418 | Cc1cc(=O)c2ccc(N)cc2o1 |

Same assay, conditions: in CCCCCC

| SMILES | emission maximum [nm] |
| --- | --- |
| OCCSc1cccc2[n+]1[B-](F)(F)n1c(c3cccc4cccc1c43)=N2 | 497 |
| COc1cccc(-n2c(-c3ccc(O)cc3)nc(C)c2C)c1 | 370 |
| COc1ccc(-c2c3ccccc3c3n2[B-](F)(F)[N+]2=Cc4c5ccccc5c(-c5ccc(OC)cc5)n4[B-](F)(F)[N+]2=C3)cc1 | 607 |

Second part, the compound after the results:

| emission maximum [nm] | SMILES |
| --- | --- |
| 387 | Cc1ccc(C#Cc2ccc3ccc4cccc5ccc2c3c45)cc1 |
| 361 | c1ccc2c(c1)cc(-c1cc(-c3nccs3)nc(-c3nccs3)c1)c1ccccc12 |

Same assay, conditions: in CCCCO

| emission maximum [nm] | SMILES |
| --- | --- |
| 417 | Cc1cc(=O)c2ccc(N)cc2o1 |
| 371 | COc1cccc(-n2c(-c3ccc(O)cc3)nc(C)c2C)c1 |

Same assay, conditions: in CCCO

| emission maximum [nm] | SMILES |
| --- | --- |
| 416 | Cc1cc(=O)c2ccc(N)cc2o1 |

Same assay, conditions: in CCO

| emission maximum [nm] | SMILES |
| --- | --- |
| 372 | COc1cccc(-n2c(-c3ccc(O)cc3)nc(C)c2C)c1 |
| 465 | Cc1cccc2nc3c(=O)[nH]c(=O)[nH]c3nc12 |
| 455 | Cn1c2cc(N3CCCCC3)c(F)cc2c(=O)c2cc(F)c(N3CCCCC3)cc21 |
| 391 | Cc1ccc(C#Cc2ccc3ccc4cccc5ccc2c3c45)cc1 |

| SMILES | emission maximum [nm] |
| --- | --- |
| c1ccc2c(c1)[nH]c1cccnc12 | 385 |
| CCC1(CC)c2cc(C=O)ccc2-c2ccc(N(C)C)cc21 | 562 |

Same assay, conditions: in CCOC(C)=O

| SMILES | emission maximum [nm] |
| --- | --- |
| N#Cc1cc2ccc(O)cc2oc1=O | 406 |
| COc1cccc(-n2c(-c3ccc(O)cc3)nc(C)c2C)c1 | 368 |

Other lines, results leading:

| emission maximum [nm] | SMILES |
| --- | --- |
| 378 | Cc1cc(=O)c2ccc(N)cc2o1 |
| 391 | Cc1ccc(C#Cc2ccc3ccc4cccc5ccc2c3c45)cc1 |

Same assay, conditions: in CCOCC

| SMILES | emission maximum [nm] |
| --- | --- |
| CCC1(CC)c2cc(C=O)ccc2-c2ccc(N(C)C)cc21 | 436 |

Same assay, conditions: in CN(C)C=O

| SMILES | emission maximum [nm] |
| --- | --- |
| Cc1cc(=O)c2ccc(N)cc2o1 | 408 |
| COc1ccc(-c2c3ccccc3c3n2[B-](F)(F)[N+]2=Cc4c5ccccc5c(-c5ccc(OC)cc5)n4[B-](F)(F)[N+]2=C3)cc1 | 613 |
| c1ccc2c(c1)[nH]c1cccnc12 | 371 |

Same assay, conditions: in CO

| SMILES | emission maximum [nm] |
| --- | --- |
| Cc1ccc(-c2nc(-c3ccc(O)cc3)[nH]c2-c2ccc(C)cc2)cc1 | 395 |
| CCOC(=O)CCOc1ccccc1C(c1c(C)[nH]c2ccccc12)c1c(C)[nH]c2ccccc12 | 345 |
| COc1cccc(-n2c(-c3ccc(O)cc3)nc(C)c2C)c1 | 369 |
| Cc1cccc2nc3c(=O)[nH]c(=O)[nH]c3nc12 | 469 |
| CCC1=C(C)C(=O)n2c1cc1c(C)c(CC)c(C)n1c2=O | 540 |
| COc1ccc(/C=C(\C)c2nc3ccccc3o2)cc1 | 400 |

Continued, values first:

| emission maximum [nm] | SMILES |
| --- | --- |
| 421 | Cc1cc(=O)c2ccc(N)cc2o1 |
| 540 | CCC1=C(C)C(=O)n2c1cc1c(CCC(=O)O)c(C)c(C)n1c2=O |
| 431 | c1ccc2c(c1)cc(-c1cc(-c3nccs3)nc(-c3nccs3)c1)c1ccccc12 |

Same assay, conditions: in CS(C)=O

| SMILES | emission maximum [nm] |
| --- | --- |
| N#Cc1cc2ccc(O)cc2oc1=O | 401 |
| C[N+]1=C(/C=C/C=C2/N(CCC[N+](C)(C)C)c3ccc(S(=O)(=O)[O-])cc3C2(C)C)C(C)(C)c2ccccc21 | 570 |
| CCC1=C(C)C(=O)n2c1cc1c(C)c(CC)c(C)n1c2=O | 510 |
| CCC1(CC)c2cc(C=O)ccc2-c2ccc(N(C)C)cc21 | 532 |

Results, then the compound that gave them:

| emission maximum [nm] | SMILES |
| --- | --- |
| 402 | Cc1cc(=O)c2ccc(N)cc2o1 |
| 510 | CCC1=C(C)C(=O)n2c1cc1c(CCC(=O)O)c(C)c(C)n1c2=O |

Same assay, conditions: in Cc1ccccc1

| SMILES | emission maximum [nm] |
| --- | --- |
| CC1(C)c2ccccc2N(c2ccc3c(c2)c2ccccc2n2c4ccccc4nc32)c2ccccc21 | 437 |
| N#Cc1cccc2ccccc12 | 341.02 |
| O=P1(c2ccccc2)c2ccc(N3c4ccccc4Sc4ccccc43)cc2-c2cc(N3c4ccccc4Sc4ccccc43)ccc21 | 559 |
| OCCSc1cccc2[n+]1[B-](F)(F)n1c(c3cccc4cccc1c43)=N2 | 505 |
| N#CC(C#N)=Cc1ccc2nc(C#Cc3ccc(N(c4ccccc4)c4ccccc4)cc3)sc2c1 | 535 |
| COc1ccc(-c2c3ccccc3c3n2[B-](F)(F)[N+]2=Cc4c5ccccc5c(-c5ccc(OC)cc5)n4[B-](F)(F)[N+]2=C3)cc1 | 616 |
| c1ccc2c(c1)[nH]c1cccnc12 | 350 |
| O=Cc1nc2ccc(C#Cc3ccc(N(c4ccccc4)c4ccccc4)cc3)cc2s1 | 519 |
| COc1ccc(C2=C(c3ccc(-c4ccccc4)cc3)C(c3ccccc3)=[N+]3C2=Nc2c(-c4ccc(OC)cc4)c(-c4ccc(-c5ccccc5)cc4)c(-c4ccccc4)n2[B-]3(F)F)cc1 | 716 |

Same assay, conditions: in ClC(Cl)Cl

| SMILES | emission maximum [nm] |
| --- | --- |
| N#Cc1cc2ccc(O)cc2oc1=O | 408 |
| COc1cccc(-n2c(-c3ccc(O)cc3)nc(C)c2C)c1 | 372 |
| CCC1=C(C)C(=O)n2c1cc1c(C)c(CC)c(C)n1c2=O | 500 |
| c1ccc2c(c1)[nH]c1cccnc12 | 369 |

The next lines start with the values.

| emission maximum [nm] | SMILES |
| --- | --- |
| 380 | Cc1cc(=O)c2ccc(N)cc2o1 |
| 500 | CCC1=C(C)C(=O)n2c1cc1c(CCC(=O)O)c(C)c(C)n1c2=O |
| 373 | CCCCc1cc(-c2cccc(COC)c2)oc1-c1cccc(-c2cc(CCCC)c(-c3cccc(-c4oc(-c5cccc(-c6oc(-c7cccc(COC)c7)cc6CCCC)c5)cc4CCCC)c3)o2)c1 |
| 681 | CCOC(=O)c1ccc(/C=C/C2=[N+]3C(=C(c4ccccc4)c4ccc(/C=C/c5ccc(C(=O)OCC)o5)n4[B-]3(F)F)C=C2)o1 |
| 473 | CN(C)c1ccc(-c2cc(-c3cccs3)nc(-c3ccccc3)n2)cc1 |
| 383 | c1ccc2c(c1)cc(-c1cc(-c3nccs3)nc(-c3nccs3)c1)c1ccccc12 |

Same assay, conditions: in ClCCCl

| emission maximum [nm] | SMILES |
| --- | --- |
| 450 | Cc1cccc2nc3c(=O)[nH]c(=O)[nH]c3nc12 |

Same assay, conditions: in ClCCl

| SMILES | emission maximum [nm] |
| --- | --- |
| ClP1(Cl)=N[P@@](Cl)(Oc2ccc3ccc4cccc5ccc2c3c45)=N[P@@](Cl)(Oc2ccc3ccc4cccc5ccc2c3c45)=N1 | 455 |
| OCCSc1cccc2[n+]1[B-](F)(F)n1c(c3cccc4cccc1c43)=N2 | 501 |
| COc1ccccc1C1=[N+]2C(=C(c3ccccc3)c3c4c(c(-c5ccccc5OC)n3[B-]2(F)F)C2CCC4CC2)C2=C1C1CCC2CC1 | 583 |
| COc1cccc(-n2c(-c3ccc(O)cc3)nc(C)c2C)c1 | 369 |
| c1ccc(-n2nc(-c3ccc(N4c5ccccc5Sc5ccccc54)cc3)nc2-c2ccccn2)cc1 | 468 |
| CCCCCCCCCCCCCCCCCCOC(=O)/C=C/C1=CC2=C(c3c(C)cc(C)cc3C)c3cc(/C=C/C(=O)OCCCCCCCCCCCCCCCCCC)cn3[B-](F)(F)[N+]2=C1 | 606 |
| CCOC(=O)COc1ccc(/C=C/C2=[N+]3C(=Cc4c5ccccc5c(-c5[nH]c(C)cc5C)n4[B-]3(F)F)C(C)=C2)cc1 | 705 |
| C(=C\c1ccc(-c2cccc3ccccc23)s1)/c1cccs1 | 453 |
| COc1ccc(-c2c3ccccc3c3n2[B-](F)(F)[N+]2=Cc4c5ccccc5c(-c5ccc(OC)cc5)n4[B-](F)(F)[N+]2=C3)cc1 | 614 |
| CCC1(CC)c2cc(C=O)ccc2-c2ccc(N(C)C)cc21 | 491 |

More lines, now with the values ahead:

| emission maximum [nm] | SMILES |
| --- | --- |
| 425 | CCOC(=O)c1c(-c2cc3ccc(OCC=C(C)C)cc3oc2=O)nn(-c2cccc(C)c2)c1C(=O)OCC |
| 511 | COc1ccc(-c2c3ccccc3c(-c3ccc(OC)cc3)c3cc4ccccc4cc23)cc1 |
| 487 | COc1ccc(/C=C/C(=O)c2c(O)cc(C)oc2=O)cc1 |
| 395 | Cc1ccc(C#Cc2ccc3ccc4cccc5ccc2c3c45)cc1 |
| 447 | CCCCCCn1c2ccccc2c2cc(-c3ccc(-c4cc(-c5ccccn5)nc(-c5ccccn5)c4)cc3)ccc21 |
| 485 | O=C1c2ccccc2-c2nc3c(F)c(F)c(F)c(F)c3n21 |

Same assay, conditions: in Clc1ccccc1

| SMILES | emission maximum [nm] |
| --- | --- |
| c1ccc2c(c1)[nH]c1cccnc12 | 364 |

Same assay, conditions: in O

| emission maximum [nm] | SMILES |
| --- | --- |
| 435 | Cc1cc(=O)c2ccc(N)cc2o1 |
| 350 | CCOC(=O)CCOc1ccccc1C(c1c(C)[nH]c2ccccc12)c1c(C)[nH]c2ccccc12 |
| 495 | Cc1cccc2nc3c(=O)[nH]c(=O)[nH]c3nc12 |

| SMILES | emission maximum [nm] |
| --- | --- |
| N#Cc1cc2ccc(O)cc2oc1=O | 410 |
| CC[N+]1(CC)CN2C(=N1)C(C(=O)O)=Cc1cc(OC)ccc12 | 491 |

Same assay, conditions: in O=P(c1ccccc1)(c1ccccc1)c1ccccc1Oc1ccccc1P(=O)(c1ccccc1)c1ccccc1

| SMILES | emission maximum [nm] |
| --- | --- |
| CC1(C)c2ccccc2N(c2ccc3c(c2)c2ccccc2n2c4ccccc4nc32)c2ccccc21 | 447.06 |

Same assay, conditions: in c1ccc2c(c1)c1ccccc1n2-c1ccc(-c2ccc(-n3c4ccccc4c4ccccc43)cc2)cc1

| SMILES | emission maximum [nm] |
| --- | --- |
| O=P1(c2ccccc2)c2ccc(N3c4ccccc4Sc4ccccc43)cc2-c2cc(N3c4ccccc4Sc4ccccc43)ccc21 | 555 |

Same assay, conditions: in c1ccccc1

| emission maximum [nm] | SMILES |
| --- | --- |
| 470 | CCC1=C(C)C(=O)n2c1cc1c(CCC(=O)O)c(C)c(C)n1c2=O |
| 371 | COc1cccc(-n2c(-c3ccc(O)cc3)nc(C)c2C)c1 |
| 500 | CCC1=C(C)C(=O)n2c1cc1c(C)c(CC)c(C)n1c2=O |

| SMILES | emission maximum [nm] |
| --- | --- |
| CCC1(CC)c2cc(C=O)ccc2-c2ccc(N(C)C)cc21 | 437 |
